The structures appear in SMILES notation. Where a SMILES comes first, the peptide text is derived from it.

Among the targets are HLA A*3001 (Homo sapiens, UniProt P04439, D140H/D185E/E176W/F33S/G80R/H175R/K168Q/R138E/R41S); HLA B*1501 (Homo sapiens, UniProt P01889, A329T/A93T/A95T/C349S/D201E/D98Y/E187L/E204Q/E69M/E70A/K202T/N87E/Q94N/R155S/R180W/S121R/S35A/S48A/V306I/V36M/Y140S/Y91S); HLA B*1503 (Homo sapiens, UniProt P01889, A329T/A93T/A95T/C349S/D201E/D98Y/E187L/E204Q/K202T/N87E/Q94N/R155S/R180L/S121R/S35A/V306I/V36M/Y140S/Y91S); HLA A*3201 (Homo sapiens, UniProt P04439, A270S/D101S/D185E/E176V/E277Q/F133L/G103R/G107R/G231S/H175R/I121M/I218V/I322F/K168Q/L105A/L300P/L318F/M331R/P208A/P217A/Q94H/R106L/R138Q/S129P/T104I/T323A/T345S/V100E/V321M/V358M).

Common to all, as to assay: biochemical
What all share (type): binding

Sequence of HLA A*3001 (P04439 25-365 limits assumed, stated change not applied): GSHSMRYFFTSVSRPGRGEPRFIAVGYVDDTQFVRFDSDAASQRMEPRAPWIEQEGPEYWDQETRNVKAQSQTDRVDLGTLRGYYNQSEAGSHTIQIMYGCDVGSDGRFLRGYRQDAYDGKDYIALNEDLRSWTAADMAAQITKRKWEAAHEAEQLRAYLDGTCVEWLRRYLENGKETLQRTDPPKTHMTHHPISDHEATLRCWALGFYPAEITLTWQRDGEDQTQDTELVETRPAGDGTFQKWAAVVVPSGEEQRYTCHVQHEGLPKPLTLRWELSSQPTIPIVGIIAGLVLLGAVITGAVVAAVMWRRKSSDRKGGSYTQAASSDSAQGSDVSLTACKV

Regarding `CC[C@H](C)[C@H](NC(=O)[C@H](Cc1ccc(O)cc1)NC(=O)[C@H](C)NC(=O)[C@H](C)NC(=O)[C@H](Cc1c[nH]cn1)NC(=O)[C@H](CO)NC(=O)[C@@H](N)CCCCN)C(=O)N[C@@H](CC(=O)O)C(=O)N[C@@H](Cc1ccc(O)cc1)C(=O)O` [3102.0209] (H-KSHAAYIDY-OH), the IC50 against HLA A*3001 worked out at 12 nM; at HLA B*1501, 1.8 nM; against HLA B*1503, 1.7 nM.

Turning to `CC(C)C[C@H](NC(=O)[C@@H](NC(=O)[C@H](CO)NC(=O)[C@H](CCCCN)NC(=O)[C@@H](NC(=O)[C@@H](N)Cc1c[nH]cn1)C(C)C)[C@@H](C)O)C(=O)N[C@@H](CC(N)=O)C(=O)N[C@@H](CC(N)=O)C(=O)N[C@@H](C)C(=O)O` [3102.0217] (H-HVKSTLNNA-OH), the IC50 worked out at 1.2 nM at HLA A*3001 and 367 nM against HLA B*1501.

For the compound `CC[C@H](C)[C@H](NC(=O)[C@H](CO)NC(=O)[C@@H](N)CCCCN)C(=O)N[C@@H](CCC(=O)O)C(=O)N[C@@H](CCC(N)=O)C(=O)N[C@@H](Cc1c[nH]cn1)C(=O)N1CCC[C@H]1C(=O)N[C@H](C(=O)N[C@H](C(=O)O)C(C)C)C(C)C` [3102.0246] (H-KSIEQHPVV-OH), the IC50 turned out to be 2.7 nM against HLA A*3001 and 71 nM on HLA B*1501.

On HLA A*3201, `CC[C@H](C)[C@H](NC(=O)[C@H](Cc1ccccc1)NC(=O)[C@H](CC(C)C)NC(=O)[C@@H](NC(=O)[C@@H](N)CC(C)C)[C@@H](C)CC)C(=O)N[C@@H](CO)C(=O)N[C@H](C(=O)N1CCC[C@H]1C(=O)N[C@@H](Cc1ccccc1)C(=O)O)[C@@H](C)CC` [3102.0290] (H-LILFISIPF-OH) had a 50% inhibitory concentration (IC50) of 25 nM. In other words, the double-digit nanomolar range.

`CC[C@H](C)[C@H](NC(=O)[C@H](CCCCN)NC(=O)[C@H](Cc1ccccc1)NC(=O)[C@H](CCSC)NC(=O)[C@@H](N)[C@@H](C)O)C(=O)N[C@H](C(=O)N[C@@H](Cc1ccc(O)cc1)C(=O)N[C@@H](CO)C(=O)N[C@@H](CC(C)C)C(=O)O)C(C)C` [3102.0291] (H-TMFKIVYSL-OH) came in with an IC50 against HLA A*3201 of 0.92 nM.

As for `CC(C)C[C@H](NC(=O)[C@@H](NC(=O)[C@H](Cc1ccc(O)cc1)NC(=O)[C@H](CCCNC(=N)N)NC(=O)[C@H](CC(C)C)NC(=O)[C@H](CCC(=O)O)NC(=O)[C@H](Cc1ccc(O)cc1)NC(=O)[C@@H](NC(=O)[C@@H](N)C(C)C)[C@@H](C)O)[C@@H](C)O)C(=O)O` [3102.0294] (H-VTYELRYTL-OH), at HLA A*3201, the midpoint of inhibition, the IC50, lay at 12 nM.

Turning to `CC(C)C[C@H](NC(=O)CNC(=O)[C@H](C)NC(=O)[C@@H](NC(=O)[C@H](C)N)[C@@H](C)O)C(=O)N[C@@H](Cc1c[nH]cn1)C(=O)N[C@@H](CC(C)C)C(=O)NCC(=O)N[C@@H](Cc1ccccc1)C(=O)O` [3102.0295] (H-ATAGLHLGF-OH), inhibition on HLA A*3201 was half-maximal at 1.7 nM (IC50).

For `C[C@@H](O)[C@H](NC(=O)[C@H](CCCCN)NC(=O)[C@H](Cc1ccc(O)cc1)NC(=O)[C@H](CCC(N)=O)NC(=O)[C@@H](N)CCC(=O)O)C(=O)N[C@@H](CCC(=O)O)C(=O)N[C@@H](CO)C(=O)N[C@@H](Cc1ccccc1)C(=O)N[C@@H](Cc1ccccc1)C(=O)O` [3102.1224] (H-EQYKTESFF-OH), the IC50 at HLA B*1501 worked out at 6.6 nM; against HLA B*1503 it was 1.8 nM.

Take `CSCC[C@H](NC(=O)[C@H](Cc1c[nH]cn1)NC(=O)[C@H](CCC(N)=O)NC(=O)CNC(=O)[C@@H]1CCCN1C(=O)[C@@H]1CCCN1C(=O)[C@H](C)NC(=O)[C@H](CO)NC(=O)[C@@H](N)CS)C(=O)O` [3102.1226] (H-CSAPPGQHM-OH): the half-inhibitory concentration (IC50) is 53 nM on HLA B*1501 and 24 nM against HLA B*1503.

For the compound `CC(C)[C@H](NC(=O)[C@H](Cc1ccccc1)NC(=O)CNC(=O)[C@H](Cc1c[nH]cn1)NC(=O)[C@H](CC(N)=O)NC(=O)[C@H](CCC(N)=O)NC(=O)[C@@H](N)Cc1ccc(O)cc1)C(=O)N[C@@H](CO)C(=O)N[C@@H](Cc1ccccc1)C(=O)O` [3102.1231] (H-YQNHGFVSF-OH), the figures for the half-maximal inhibitory concentration (IC50) against HLA B*1501 and against HLA B*1503 were 0.17 nM and 2.4 nM, respectively.

In the case of `CC(C)C[C@H](NC(=O)[C@@H]1CCCN1C(=O)[C@H](CC(N)=O)NC(=O)[C@H](C)NC(=O)[C@@H](N)Cc1ccccc1)C(=O)N[C@@H](CO)C(=O)N[C@@H](CC(N)=O)C(=O)N1CCC[C@H]1C(=O)N[C@@H](Cc1ccccc1)C(=O)O` [3102.1245] (H-FANPLSNPF-OH), the IC50 against HLA B*1501 amounted to 1.7 nM; at HLA B*1503 it was 1.9 nM.

Turning to `CC[C@H](C)[C@H](NC(=O)[C@H](CCC(N)=O)NC(=O)[C@@H](N)CO)C(=O)N[C@@H](CCC(=O)O)C(=O)N[C@H](C(=O)NCC(=O)N[C@H](C(=O)N1CCC[C@H]1C(=O)N[C@@H](Cc1ccccc1)C(=O)O)[C@@H](C)O)[C@@H](C)O` [3102.1253] (H-SQIETGTPF-OH), the figures for the IC50 on HLA B*1501 and against HLA B*1503 were 0.61 nM and 1.3 nM, respectively.

Consider `CC[C@H](C)[C@H](NC(=O)[C@H](Cc1c[nH]cn1)NC(=O)[C@H](CCCCN)NC(=O)[C@H](CC(N)=O)NC(=O)[C@H](CCSC)NC(=O)[C@@H](N)Cc1ccccc1)C(=O)N[C@@H](CC(C)C)C(=O)N[C@@H](CO)C(=O)N[C@@H](Cc1ccc(O)cc1)C(=O)O` [3102.1258] (H-FMNKHILSY-OH), for which the results for the IC50 against HLA B*1501 and at HLA B*1503 were 1.7 nM and 0.74 nM, respectively.

Regarding `CC(C)C[C@H](NC(=O)[C@H](CO)NC(=O)[C@H](CO)NC(=O)CNC(=O)[C@H](CO)NC(=O)[C@H](CCCCN)NC(=O)[C@H](C)NC(=O)[C@H](CCC(N)=O)NC(=O)[C@@H](N)CC(C)C)C(=O)O` [3102.1276] (H-LQAKSGSSL-OH), the results for the IC50 against HLA B*1501 and against HLA B*1503 were 4.6 nM and 0.33 nM, respectively.

As to `CC[C@H](C)[C@H](NC(=O)[C@H](CCSC)NC(=O)[C@H](CC(C)C)NC(=O)[C@H](CCSC)NC(=O)[C@@H](N)CCSC)C(=O)NCC(=O)N[C@@H](CC(N)=O)C(=O)N[C@@H](Cc1ccc(O)cc1)C(=O)N[C@@H](Cc1ccccc1)C(=O)O` [3102.1301] (H-MMLMIGNYF-OH), the values for the IC50 against HLA B*1501 and at HLA B*1503 were 33 nM and 0.2 nM, respectively.

Regarding `CC(C)C[C@H](NC(=O)[C@H](C)N)C(=O)N[C@@H](CCCNC(=N)N)C(=O)N1CCC[C@H]1C(=O)N[C@@H](CO)C(=O)N[C@@H](CO)C(=O)N[C@@H](CCC(N)=O)C(=O)N[C@H](C(=O)N[C@@H](Cc1ccccc1)C(=O)O)C(C)C` [3102.1320] (H-ALRPSSQVF-OH), the IC50 against HLA B*1501 came to 1.5 nM; at HLA B*1503, 0.095 nM.

For `CC[C@H](C)[C@H](NC(=O)[C@H](Cc1c[nH]cn1)NC(=O)[C@H](CCC(N)=O)NC(=O)[C@H](CO)NC(=O)[C@H](CCC(=O)O)NC(=O)[C@@H](N)CC(C)C)C(=O)N[C@H](C(=O)N[C@@H](CO)C(=O)N[C@@H](Cc1ccccc1)C(=O)O)[C@@H](C)CC` [3102.1322] (H-LESQHIISF-OH), the IC50 on HLA B*1501 stood at 57 nM; against HLA B*1503, 28 nM.

As to `CC[C@H](C)[C@H](NC(=O)[C@H](CO)NC(=O)[C@@H](N)Cc1ccccc1)C(=O)N[C@@H](Cc1ccc(O)cc1)C(=O)N[C@@H](CO)C(=O)N[C@H](C(=O)N[C@@H](CO)C(=O)N[C@@H](CS)C(=O)N[C@@H](Cc1ccccc1)C(=O)O)C(C)C` [3102.1330] (H-FSIYSVSCF-OH), the IC50 is 3.1 nM on HLA B*1501 and 7.6 nM at HLA B*1503.

For the compound `CC(C)C[C@H](NC(=O)[C@H](CO)NC(=O)[C@@H]1CCCN1C(=O)[C@H](CO)NC(=O)[C@H](Cc1ccccc1)NC(=O)[C@H](CO)NC(=O)[C@@H](N)C(C)C)C(=O)N[C@H](C(=O)N[C@@H](Cc1ccccc1)C(=O)O)[C@@H](C)O` [3102.1333] (H-VSFSPSLTF-OH), the IC50 against HLA B*1501 stood at 1.3 nM; on HLA B*1503 it was 1.2 nM.

Source of the values: PMC2248166, “Quantitative peptide binding motifs for 19 human and mouse MHC class I molecules derived using positional scanning combinatorial peptide libraries” (Immunome Research, 2008).
